Source: US20030217378A1, “Cloning using rapidly matured oocytes” (The University of Georgia Research Foundation, Inc, priority 2002, published 2003)
“And” between values parts separate entries of the source, which are not always exact repeats. Equal values may be shown once.

Assays:
Type in all cases: cell-based
[1] = system: porcine embryos reconstituted with 42-h-matured oocytes; assay: Experiment 5: in vitro development of porcine nuclear transfer embryos reconstituted with 42-h-matured oocytes treated with dbcAMP
Description: (§1) Ovaries were collected from prepubertal gilts at a local slaughterhouse and transported to the laboratory at 30-35° C. Antral follicles (2-5 mm in diameter) were aspirated with an 18-gauge needle using vacuum suction (40 mm Hg). […] Oocytes were cultured in 4-well plates (Nunc, Roskilde, Denmark) containing 500 μl of each medium. TCM-199 (Gibco) supplemented with 3.05 mM D-glucose, 0.91 mM Na-pyruvate, 0.57 mM cysteine, 10 ng/ml epidermal growth factor (Sigma), 10 IU/ml eCG (Sioux Biochemicals, Sioux Center, Iowa), 10 IU/ml hCG (Intervet, Millsboro, Del.), and 10% (v:v) porcine follicular fluid was used as a basic maturation medium.
At the end of maturation, cumulus cells were removed by vortexing with 0.1% (w:v) hyaluronidase (Sigma) and denuded oocytes were transferred into 100 μl of Hepes-buffered TCM-199 with the osmolarity adjusted to 300 mOsm by adding sorbitol supplemented with 7.5 μg/ml cytochalasin B (Sigma) and 10% FCS (manipulation medium). The first polar body and MII plate were removed by aspiration with a 15-μm inner diameter glass pipette. The oocytes had been previously stained in the manipulation medium supplemented with 5 μg/ml Hoechst 33342 (Sigma) for 20 min and confirmation of successful enucleation was achieved by visualizing the cytoplast and removed cytoplasm under ultraviolet light. After enucleation, a donor cell was inserted into the perivitelline space of each enucleated oocyte using the same glass pipette. Cell-oocyte complexes were washed in TCM-199 supplemented with 10% FCS, transferred to the same medium and kept in a CO2 incubator adjusted to 5% CO2 in air at 38.5° C. until fusion.
The chamber for fusion was a 100 mm dish filled with 15 ml of Zimmerman fusion medium, Zimmerman, et al., Electric field-induced cell-to-cell fusion. J Membr Biol 1982, 67: 165-182. Two stainless steel wires (100 μm diameter) were used as electrodes and they were attached to micromanipulators. The single cell-oocyte complex was sandwiched between the electrodes and oriented with the contact surface between the cytoplast and the donor cell perpendicular to the electrodes. The distance between the electrodes was about 100 μm. Membrane fusion was induced by applying a single direct current pulse of 250 V/mm for a duration of 20 μsec with a prepulse of alternating current field of 5 V, 1 MHz for 2 sec using an LF 101 Fusion Machine (TR Tech Co., Tokyo, Japan). Following the fusion pulse, the complexes were washed in G1.2 medium, Gandhi, et al., Substrate utilization in porcine embryos cultured in NCSU23 and G1.2/G2.2 sequential culture media, Mol Reprod Dev 2001, 58: 269-275 and cultured for a period of 1 h in 100 μl of the same medium. Fusion was then determined by microscopic examination.
At 3 h after fusion, fused embryos were washed once in Zimmerman fusion medium and then placed between 2 wire electrodes (1 mm apart) of the fusion chamber slide with 15 ml of the medium. Direct current pulses of 75 V/mm were applied twice to the embryos for a duration of 60 μsec at intervals of 5 sec. Activated embryos were incubated in 100 μl of G1.2 medium supplemented with 7.5 μg/ml cytochalasin B for 2 h after activation to prevent extrusion of polar bodies, Miyoshi, et al. (2000) (supra), and then transferred into G1.2 medium. After culture in G 1.2 medium for 3 days, the embryos were transferred into 100 μl of G2.2 medium, Gandhi, et al., (2001) (supra), and continued to be cultured. The embryos were examined for cleavage and blastocyst formation at 2 and 7 days of culture, respectively. At the end of the culture period, all blastocysts were counted for nuclei after Hoechst staining. The blastocysts were placed on slides with a drop of mounting medium consisting of glycerol and PBS (9: 1) containing 0.1 mg/ml Hoechst 33342. A cover slip was placed on the top of the blastocysts and the edge was sealed with fingernail polish. The numbers of nuclei were counted under ultraviolet light. […]

[2] = system: porcine oocytes; assay: Experiment 1: meiotic resumption of porcine oocytes cultured in maturation medium with 1 mM dbcAMP
Description: as §1
After culture for each period, degenerated oocytes with lysed cytoplasmic membranes were removed.

[3] = system: porcine oocytes; assay: Experiment 2: maturation to metaphase II of porcine oocytes treated with dbcAMP for 20 h, then cultured without dbcAMP; conditions: 1 mM dbcAMP for 20 h
Description: as §1
Oocytes continued to be cultured for additional 4, 10, 16, and 22 h and examined for meiotic progression to the M II stage by staining with 5 μg/ml Hoechst 33342.

[4] = oocytes treated with 1 mM dbcAMP for 20 h, 42-h-matured, examined at 2 days of culture
[5] = oocytes treated with 1 mM dbcAMP for 20 h, 42-h-matured, examined at 7 days of culture
[6] = oocytes treated with 1 mM dbcAMP for 20 h, M II oocytes collected at 42 h of maturation
[7] = then 4 h additional culture without dbcAMP
[8] = then 10 h additional culture without dbcAMP
[9] = then 16 h additional culture without dbcAMP
[10] = then 22 h additional culture without dbcAMP

With `CCCC(=O)Nc1ncnc2c1ncn2[C@@H]1O[C@@H]2COP(=O)(O)O[C@H]2[C@H]1OC(=O)CCC` [dbcAMP, dibutyryl cyclic AMP] the “difference in mean numbers of cells in the blastocysts between presence and absence of dbcAMP treatment” value ([1]; 42-h-matured oocytes) was “no significant difference”, the “difference in percentages of fused cell-oocyte complexes, cleaved embryos and embryos developed to blastocysts between presence and absence of dbcAMP treatment” value ([1]; 42-h-matured oocytes) was “no significant differences” and the “Mean no. ± SEM of cells in blastocysts” value ([1]; oocytes treated with 1 mM dbcAMP for 20 h, 42-h-matured, blastocysts at end of culture) was 49.0 ± 7.0. For the same compound, the “No. of embryos developed to ≧2-cell” value [1, 4] was 48, the “embryos developed to ≧2-cell (%), percentage (mean ± SEM) of complexes fused” value [1, 4] was 41.4 ± 8.3% and the “No. of embryos developed to Blastocyst” value [1, 5] was 2. The “embryos developed to Blastocyst (%), percentage (mean ± SEM) of complexes fused” value [1, 5] was 1.7 ± 1.5%, the “No. of complexes fused” value [1, 6] was 116 and the “complexes fused (%), percentage (mean ± SEM) of complexes treated” value [1, 6] was 80.0 ± 4.5%. For the same compound, the “No. of oocytes at the germinal vesicle stage” value ([2]; 16 h of culture) was 49, the “oocytes at the germinal vesicle stage (%), percentage (mean ± SEM) of oocytes examined” value ([2]; 16 h of culture) was 77.8% and 77.8 ± 3.2% and the “No. of oocytes at the germinal vesicle stage” value ([2]; 20 h of culture) was 43. The “oocytes at the germinal vesicle stage (%), percentage (mean ± SEM) of oocytes examined” value ([2]; 20 h of culture) was 72.9% and 72.9 ± 10.4%, the “No. of oocytes at the germinal vesicle stage” value ([2]; 24 h of culture) was 33 and the “oocytes at the germinal vesicle stage (%), percentage (mean ± SEM) of oocytes examined” value ([2]; 24 h of culture) was 54.1 ± 7.0%. The “No. of oocytes at the germinal vesicle stage” value ([2]; 42 h of culture) was 27, the “oocytes at the germinal vesicle stage (%), percentage (mean ± SEM) of oocytes examined” value ([2]; 42 h of culture) was 44.3% and 44.3 ± 2.6% and the “effect of addition of dbcAMP on the percentage of GV oocytes versus absence” value ([2]; at each culture period (16, 20, 24, 42 h), P<0.05) was “increased”. For the same compound, the “effect of addition of dbcAMP on the percentage of M II oocytes versus absence” value ([3]; at 10 h of additional culture, P<0.05) was “decreased”, the “No. of oocytes at the metaphase II stage” value [3, 7] was 30 and the “oocytes at the metaphase II stage (%), percentage (mean ± SEM) of oocytes examined” value [3, 7] was 35.3% and 35.3 ± 9.2%. The “No. of oocytes at the metaphase II stage” value [3, 8] was 25, the “oocytes at the metaphase II stage (%), percentage (mean ± SEM) of oocytes examined” value [3, 8] was 29.8% and 29.8 ± 1.4% and the “No. of oocytes at the metaphase II stage” value [3, 9] was 54. The “oocytes at the metaphase II stage (%), percentage (mean ± SEM) of oocytes examined” value [3, 9] was 67.5% and 67.5 ± 8.4%, the “No. of oocytes at the metaphase II stage” value [3, 10] was 69 and the “oocytes at the metaphase II stage (%), percentage (mean ± SEM) of oocytes examined” value [3, 10] was 85.2 ± 5.0%.
